Test results as given in publication PMC8018184, “Evaluation of the Pharmacophoric Role of the O–O Bond in Synthetic Antileishmanial Compounds: Comparison between 1,2-Dioxanes and Tetrahydropyrans” (Journal of Medicinal Chemistry, 2020).

How the values were obtained:
[1] = Cytotoxicity test on Vero cells (alamarBlue); assay type: cell-based, African green monkey; settings: chlorocebus sabaeus, Vero cells (kidney epithelial cell line); 72 h, alamarBlue; read-out: CC50 (50% cytotoxic concentration) on Vero cells
Experimental: (§1) Vero cells (kidney of African green monkey epithelial cell line) were cultured at 37 °C in the MEM liquid medium supplemented with 10% FBS (EuroClone SpA), 1% levoglutamine (EuroClone SpA), and 1% penicillin–streptomycin (EuroClone SpA). THP-1 cells (human leukemia monocytic cell line) were cultured at 37 °C in the RPMI 1640 (EuroClone SpA) liquid medium supplemented with 10% FBS (EuroClone SpA), 1% levoglutamine (EuroClone SpA), 1% penicillin–streptomycin, and mercaptoethanol (Gibco) 50 μM.
(§2) The cytotoxicity of the compounds was determined using mammalian kidney epithelial cells (Vero cell line) and human acute monocytic leukemia cell line (THP-1). Cells were seeded (10^5 cells mL^–1) on 96-well plates with the complete MEM medium and incubated with test compounds at 37 °C in a 5% CO2 incubator. After 72 h of incubation, 20 μL of the alamarBlue reagent was added to each well and incubated at 37 °C for 24 h. Reduction of resazurin to resorufin was evaluated after 24 h by absorbance measurement at the Multiskan ascent plate reader (Thermo Fisher Scientific Inc.,) at 550 and 630 nm. […] Each experiment was performed in duplicate.

[2] = Cytotoxicity test on THP-1 cells (alamarBlue); assay type: cell-based; settings: human, THP-1 cells (acute monocytic leukemia cell line); CSV supplement; read-out: CC50 against human acute monocytic leukemia cell line (THP-1)
Experimental: as §1, §2
Cytotoxicity in THP-1 cell line
We performed additional cytotoxicity tests employing THP-1 cell line. We also calculated the
corresponding selectivity indexes, as the ratio between CC50 of THP-1 cell line and IC50 on amastigotes
THP-1 cells than on VERO cells; thus showing a not significant variance of selectivity index.
Table S3. Inhibitory activity of tetrahydropyrans 3 and endoperoxides 2 against amastigotes of L.
donovani, cytotoxicity in human acute monocytic leukemia cell line (THP-1) and selectivity index (SI).
Tetrahydropyran IC50 CC50 Endoperoxide IC50 CC50
a (µM)b (µM)c a (µM)b (µM)c
a Compounds tested as racemates. b IC50 represents the concentration of a compound that causes 50% growth inhibition.
Results represent the mean (± standard deviation, SD) of three independent experiments performed in duplicate. c CC50
represents 50% cytotoxic concentration on THP-1 cells. d Selectivity index (SI) = CC50/IC50. […]

[3] = tested on: ROS in L. donovani promastigotes; experiment: Evaluation of intracellular ROS levels (H2DCFDA fluorescence); assay type: cell-based, Leishmania donovani; settings: for Intracellular ROS levels compared to negative control (untreated promastigotes): compound at its IC50, 24 h, H2DCFDA; for ROS production compared to positive controls: compound at its IC50, H2O2 20 μM, miltefosine 22 μM
Experimental: We evaluated the ability of our synthetic compounds to generate reactive oxygen species (ROS) in L. donovani promastigotes. We selected the endoperoxide 2a and the tetrahydropyran 3a as model substrates, which were administered to the parasites in the presence of 2,7-dichlorodihydrofluorescein diacetate (H2DCFDA), a live-cell-permeable dye, which is oxidized by ROS, providing a fluorescent compound (DCF) (see Experimental Section for details).[103] Therefore, the resultant fluorescence is a direct measure of the amount of ROS generated.
To monitor the effect of the compounds on the production of ROS in promastigotes of L. donovani, an oxidant-sensitive green fluorescent dye (2,7-dichlorofluorescein diacetate, H2DCFDA) was used. […] Subsequently, parasitic cells were washed in PBS (pH 7.4), loaded with 10 μM permeant probe H2DCFDA (Sigma, St. Louis, MO, USA), and incubated in the dark for 35 min at 26 °C.[103] H2O2 (20 μM)[124] and miltefosine (22 μM)[125] were used as positive controls. Each experiment was performed in triplicate. Reactive oxygen species (ROS) production was measured as an increase in fluorescence caused by the conversion of nonfluorescent dye to highly fluorescent 2,7-dichlorofluorescein, with an excitation wavelength of 488 nm and an emission wavelength of 530 nm. Plates were read by employing a fluorescence microplate reader Varioskan Flash (Thermo Fisher Scientific Inc.).

| SMILES | CC50 at 72 h [1] [µM] | CC50 at 72 h [2] [µM] | Intracellular ROS levels compared to negative control (untreated promastigotes) [3] | ROS production compared to positive controls [3] |
| --- | --- | --- | --- | --- |
| CCCCC1(CCCC)CO[C@@](C)(OC)[C@@H](CNCCCn2ccnc2)C1 (racemic) [3a, N-((5,5-Dibutyl-2-methoxy-2-methyltetrahydro-2H-pyran-3-yl)methyl)-3-(1H-imidazol-1-yl)propan-1-amine] | 35.2 ± 4.7 | 26 | increase in the intracellular ROS levels | higher ROS production when compared to H2O2 |
| CCCCC1(CCCC)C[C@H](CNCCCn2ccnc2)[C@](C)(OC)OO1 [2a] | 72 ± 6.6 | 86 | increase in the intracellular ROS levels | lower fluorescence intensity when compared to H2O2 and miltefosine |
